Measurements: patent US20200038513A1, “MODULATORS OF FAK PROTEOLYSIS AND ASSOCIATED METHODS OF USE” (ARVINAS OPERATIONS, INC., priority 2018, published 2020)

Legend:
Format in all cases: cell-based, human
Settings in all cases: serum deprived PC3 cells, 24 h
[1] = test system: p-Fak(Y397); experiment: Fak activation, western blot in PC3 cells
Protocol: (§1) If not indicated otherwise, cells were seeded and grown to 80% confluency and were treated with compound or control for 24 hours. Subsequently, the growth media was removed and the cells lysed by the addition of lysis buffer (25 mM Tris, pH 7.4; 1% NP-40, 0.25% deoxycholate, 1 mM sodium vanadate, 10 mM sodium fluoride, 10 mM sodium pyrophosphate, 20 mM β-glycerophosphate and 1× complete EDTA-free protease inhibitor cocktail (Roche)). After 20 minutes the mixture was spun down at 16,000×g for 10 minutes at 4° C. to pellet insoluble materials. Protein concentration of supernatants were determined via BCA assay (Thermo Fisher) before addition of NuPAGE sample buffer containing 5% β-Me and boiling at 95° C. for 10 minutes. Equal amounts of protein were subjected to SDS-PAGE and subsequent electrophoretic transfer onto nitrocellulose membrane. Rabbit antibodies were purchased from Cell Signaling: Fak (3285), p-Fak (3283), p-Paxillin (2541), p-Akt (S473)(4060), GAPDH (2118), Androgen Receptor (5153), p-Src(Y527)(2105), p-S6RP (2215). Mouse antibodies were purchased from Cell Signaling: tubulin (3873), S6RP (2317). Secondary antibody ∝-rabbit (31460) or ∝-mouse (31444) was coupled to horseradish peroxidase and purchased from Thermo Fisher. Immunoblots were developed using enhanced chemiluminescence and visualized using a Bio-Rad Chemi-Doc MP Imaging System and quantitated with Image Lab v.5.2.1 software (Bio-Rad Laboratories). Data analysis and statistics was performed using Prism 7.0 (GraphPad).
Fak levels are undetectable at concentrations of 100 nM through 1 μM of exemplary compound 102, and slightly rebound at concentrations of 5 μM (10%) and 10 μM (27%) due to an observed hook effect. […] Paxillin, a downstream target of the Fak-Src complex, has been associated with cell migration. […] Akt is a kinase that is tied to the Fak signaling cascade via PI3K, but can be activated through other pathways as well. […] A maximum p-Akt suppression of 93% is observed at 1 μM of exemplary compound 102. […]

[2] = test system: p-paxillin; experiment: Fak downstream signaling, western blot in PC3 cells
Protocol: as §1
(§2) Fak levels are undetectable at concentrations of 100 nM through 1 μM of exemplary compound 102, and slightly rebound at concentrations of 5 μM (10%) and 10 μM (27%) due to an observed hook effect. […] Paxillin, a downstream target of the Fak-Src complex, has been associated with cell migration. […] Akt is a kinase that is tied to the Fak signaling cascade via PI3K, but can be activated through other pathways as well. […] A maximum p-Akt suppression of 93% is observed at 1 μM of exemplary compound 102. […] A similar differential can be observed when exemplary compound 102 is compared to its non-degrading diastereomer exemplary compound 106 (FIGS. 9A-9F and 10A-10D). These differences are the result of the distinct MOA Fak degraders are able to provide compared to inhibitors.

[3] = test system: p-Akt (S473); experiment: as above
Protocol: as §1, §2

| SMILES | p-Fak levels ([1]; between 100 nM and 5 μM) | Fak activation (p-Fak(Y397)) compared to DMSO (in words) ([1]; increasing concentrations) | reduction of p-paxillin levels ([2]; above 50 nM) | maximum p-Akt suppression ([3]; 1 μM) [%] | effect on p-Akt (S473) (in words) ([3]; increasing concentrations) | lowest level of p-Fak activity (remaining) ([1]; 10 μM) [%] | maximum reduction of p-paxillin levels ([2]; 10 μM) [%] | maximum reduction of p-Akt ([3]; 10 μM) [%] |
| --- | --- | --- | --- | --- | --- | --- | --- | --- |
| Cc1ncsc1-c1ccc(CNC(=O)[C@@H]2C[C@@H](O)CN2C(=O)[C@@H](NC(=O)CCOCCOc2ccc(Nc3ncc(C(F)(F)F)c(NCc4cccc(N(C)S(C)(=O)=O)c4)n3)cc2)C(C)(C)C)cc1 [Compound 102, (2S,4R)-1-((S)-3,3-dimethyl-2-(3-(2-(4-((4-((3-(N-methylmethylsulfonamido)benzyl)amino)-5-(trifluoromethyl)pyrimidin-2-yl)amino)phenoxy)ethoxy)propanamido)butanoyl)-4-hydroxy-N-(4-(4-methylthiazol-5-yl)benzyl)pyrrolidine-2-carboxamide] | less than 5% | significantly reduced | 85-90% | 93 | significant at all treatment concentrations |  |  |  |
| CNC(=O)c1ccc(Nc2ncc(C(F)(F)F)c(NCc3nccnc3N(C)S(C)(=O)=O)n2)cc1 [Defactinib, defactinib, reference compound] |  |  |  |  |  | 26 | 62 | 88 |
